Measured values reported in patent US12036214B2, “Solid dispersion comprising an anticancer compound for improved solubility and efficacy” (COUNCIL OF SCIENTIFIC AND INDUSTRIAL RESEARCH, priority 2018, dated 2024).
Where “and” joins values, the source holds several entries; their conditions need not be identical. Equal entries are not always repeated.

Columns and labels:
[1] = tested on: Ehrlich Ascites Carcinoma (EAC) cells; assay: Ehrlich solid tumor model; assay type: in vivo
Method: Novel oral solid dispersion containing anticancer compound of formula A was tested for in-vivo anticancer activity using Ehrlich Solid Tumor model. In this model, after oral administration of formulation VKB-SD75 and the compound of formula A in male Swiss mice up to 9 days, the % tumor growth inhibition was calculated on 13th day.
The in-vivo efficacy testing of best identified solid dispersion formulation VKB-SD75 was done using Ehrlich solid tumor model, parallelly with the compound of Formula A. Ehrlich Ascites Carcinoma (EAC) cells were collected from the peritoneal cavity of the Swiss mice weighing 18-23 g, harboring 8-10 days old ascetic tumor. 1×10^7 EAC cells were injected intramuscularly in the right thigh of Swiss male mice selected for the experiment on day 0. The next day, animals were randomized and divided into 8 groups. Seven treatment groups contained 7 animals each and one control groups contained 10 animals each. Treatment group 1-6 were treated with the compound of formula A and solid dispersion formulation at different dose strength once daily from day 1-9. The seventh treatment group was treated with 5-fluorouracil (22 mg/kg, i.p.) from day 1-9 and it served as positive control. The control group was similarly administered normal saline (0.2 ml, i.p) from day 1-9. On day 9 & 13, tumor-bearing thigh of each animal was shaved, and longest and shortest diameters of the tumor were measured with the help of vernier caliper. The percent tumor growth inhibition was calculated on day 13 by comparing the average values of treated groups with that of the control group. Tumor growth in saline-treated control animals was taken to be 100%.

Lipophilicity (log P) = assay type: physicochemical
[2] = Water solubility by shake flask method with HPLC analysis; assay type: physicochemical; conditions: distilled water, 25 °C, thermodynamic from solid
Method: (§1) The water solubility of prepared solid dispersions along with compound of Formula A was determined using shake flask method, wherein the analysis was done by HPLC. The in-vitro dissolution studies were performed using U.S.P. type-2 (paddle type) dissolution apparatus at a speed of 50 rpm, and temperature of 37° C.±0.5, using 250 ml of dissolution media (0.25% SLS containing water and phosphate buffer pH 6.8 up to 6 h). Further, the solid dispersions were characterized using different analytical techniques such as DSC, FTIR, XRD, etc.
Solid dispersions were formulated as different formulations containing anticancer compound (formula A) along with different polymers in different proportions as shown in Table 1 and 2. First the anticancer compound and various excipients/hydrophilic polymers were weighed accurately. Both the compound and polymers were dissolved in methanol. Those polymers which were insoluble in methanol were dissolved in water. […] After complete drying, the water solubility of compound was determined by shake-flask method followed by […] analysis. […]
The water solubility of formulations prepared in Example 4 and compound of Formula A was determined in each well of plate containing different solid dispersion formulations. […] The supernatant was then analyzed by RP-HPLC.

[3] = pH dependent stability in buffers, SGF, SIF and plasma; assay type: physicochemical; conditions: pH 1.2, pH 4.0, pH 6.8, PBS pH 7.4, SGF (pH 1.2), SIF (pH 6.8) and plasma, upto 24 hrs
Method: The stability of compound was performed in pH 1.2 buffer, pH 4.0 buffer, phosphate buffer pH 6.8, phosphate buffered saline pH 7.4, SGF (pH 1.2), SIF (pH 6.8) and plasma upto 24 hrs. The % compound hydrolyzed or degraded was determined by HPLC analysis.

[4] = In-vitro dissolution, USP type-2 paddle apparatus, sink conditions; assay type: physicochemical; conditions: 50 rpm, 37° C.
Method: as §1
The dissolution profile of compound and solid dispersion formulation VKB-SD75 was studied in sink conditions. For the sink condition, 0.25% SLS was added to dissolution media and dissolution was studied in water and pH 6.8 phosphate buffer (Ilevbare, G. A. et al., Pharmaceutical amorphous solid dispersions, Eds. John Wiley & Sons 2015, pp. 218). The dissolution studies were carried out using Lab-India Dissolution Tester (Model: DS 8000; apparatus 2—Paddle Apparatus) at 50 rpm and 37° C.±0.5 and dissolution media volume was 250 mL. Formulation equivalent to 10 mg of compound was added to each dissolution vessel in triplicate and 1 ml sample was taken and replaced by fresh dissolution media at different time points (0.25, 0.50, 1, 2, 4, 6 hrs).
The percentage drug dissolved was determined by HPLC analysis. […]

[5] = male, BALB/c, mouse, in vivo, po, 50 mg/kg
Method: (§2) The vehicle used for PK study was 1% v/v Tween 80 in 0.5% sodium CMC in water. Blood samples were collected (n=3/time point) at 0.083 (IV only), 0.25, 0.5, 1, 2, 4, 8 and 24 h, post-dose. At each time point about 200 μL of blood was collected by jugular vein into a labeled microfuge tube containing 200 mM K2EDTA solution (20 μL per mL of blood) and equivalent volume of heparinized saline was replaced following sample collection. The blood samples were processed to obtain the plasma samples within 30 min of scheduled sampling time. All plasma samples were stored below −60° C. until bioanalysis. […] The pharmacokinetic parameters of compound of formula A were calculated using the non-compartmental analysis tool of validated Phoenix® WinNonlin® software (version 6.3).

Molt-4 = conditions: read-out: Molt-4 cell growth GI50; cited from earlier work
MIAPaCa-2 = conditions: read-out: MIAPaCa-2 cell growth GI50; cited from earlier work
[6] = tested on: cancer cells over normal fibroblast-cells; conditions: cited from earlier work
CYP/efflux-pump = conditions: cited from earlier work
pancreatic xenograft = conditions: 50 mg/kg, po; cited from earlier work
colon xenograft = conditions: 50 mg/kg, po; cited from earlier work
leukemia xenograft = conditions: 50 mg/kg, po; cited from earlier work
in vivo = conditions: male, BALB/c, mouse, po, 50 mg/kg
Method: as §2

physchem = conditions: 37 °C, water, thermodynamic from solid

For `O=c1[nH]cc(F)c(=O)[nH]1` [Formulation 5-FU, 5-fluorouracil, reference compound], the Mortality ([1]; 22 mg/kg, i/p) was 0/7 and the “% Tumor growth inhibition on 13th day” value ([1]; 22 mg/kg, i/p, day 1-9) was 49.44 ± 6.32%.
In the case of `CN1CC[C@H](c2c(O)cc(O)c3c(=O)cc(/C=C/c4c(Cl)cccc4Cl)oc23)[C@H](O)C1` [Compound of formula A, (1′R,2′S)-2-(2,6-dichlorostyryl)-5,7-dihydroxy-8-(3-hydroxy-1-methylpiperidin-4-yl)-4H-chromen-4-one], the “log P” value (Lipophilicity (log P)) is reported as 3.10, the solubility at 24 h [2] is reported as 10 to 20 µg/mL and the “% drug remaining” value [3] is reported as greater than 95%. For the same molecule, the “% drug dissolution” value ([4]; phosphate buffer pH 6.8, 0.25% SLS, after 1 h) was 63%, the “% drug dissolved” value ([4]; water containing 0.25% SLS, after 2 h) was 49.15% and the Mortality ([1]; 50 mg/kg p.o) was 0/7. The “% Tumor growth inhibition on 13th day” value ([1]; 50 mg/kg p.o, once daily day 1-9) was 24.75% and 24.75 ± 3.52%, the Mortality ([1]; 75 mg/kg p.o.) was 0/7 and the “% Tumor growth inhibition on 13th day” value ([1]; 75 mg/kg p.o., once daily day 1-9) was 30.92% and 30% and 30.92 ± 5.32%. The Mortality ([1]; 100 mg/kg p.o.) was 0/7, the “% Tumor growth inhibition on 13th day” value ([1]; 100 mg/kg p.o., once daily day 1-9) was 38.63 ± 3.65% and the AUClast [5] was 2570 ng·h/mL. For the same molecule, the Cmax [5] was 656 ng/mL, the GI50 (Molt-4) was less than 1000 nM and the GI50 (MIAPaCa-2) was less than 1000 nM. The “selectivity for cancer cells over normal fibroblast-cells” value [6] was “highly selective”, the CYP/efflux-pump liability (CYP/efflux-pump) was “did not have CYP/efflux-pump liability” and the “in-vivo efficacy in pancreatic xenograft” value (pancreatic xenograft) was “showed in-vivo efficacy”. For the same molecule, the “in-vivo efficacy in colon xenograft” value (colon xenograft) was “showed in-vivo efficacy”, the “in-vivo efficacy in leukemia xenograft” value (leukemia xenograft) was “showed in-vivo efficacy” and the Tmax (in vivo) was 1 h. It also gave a solubility at 120 min (physchem) of 10 to 20 µg/mL.
